# Measured values: patent US12384789B2, “Compounds for treating Huntington's disease” (PTC Therapeutics, Inc., priority 2017, dated 2025)
# Tested on: Endogenous Huntingtin Protein
# Test: Endogenous Huntingtin Protein Assay (Meso Scale Discovery ELISA-based electrochemiluminescence)
# Type: cell-based
# Details: MSD electrochemiluminescence, Table 1
# Experimental: Compounds of Formula (I) were tested using the Meso Scale Discovery (MSD) Assay provided in International Application No. PCT/US2016/066042, filed on Dec. 11, 2016 and claiming priority to United States Provisional Application U.S. 62/265,652 filed on Dec. 10, 2015, the entire contents of which are incorporated herein by reference.
# The Endogenous Huntingtin Protein assay used in Example 1 was developed using the ELISA-based MSD electrochemiluminescence assay platform.
# Endogenous Huntingtin Protein Assay
# Meso Scale Discovery (MSD) 96-well or 384-well plates were coated overnight at 4° C. with MW1 (expanded polyglutamine) or MAB2166 monoclonal antibody (for capture) at a concentration of 1 μg/mL in PBS (30 μL per well). Plates were then washed three times with 300 μL wash buffer (0.05% Tween-20 in PBS) and blocked (100 μL blocking buffer; 5% BSA in PBS) for 4-5 hours at room temperature with rotational shaking and then washed three times with wash buffer.
# Samples (25 μL) were transferred to the antibody-coated MSD plate and incubated overnight at 4° C. After removal of the lysates, the plate was washed three times with wash buffer, and 25 μL of #5656S (Cell signaling; rabbit monoclonal) secondary antibody (diluted to 0.25 μg/mL in 0.05% Tween-20 in blocking buffer) was added to each well and incubated with shaking for 1 Hour at room temperature. Following incubation with the secondary antibody, the wells were rinsed with wash buffer after which 25 μL of goat anti-rabbit SULFO TAG secondary detection antibody (required aspect of the MSD system) (diluted to 0.25 μg/mL in 0.05% Tween-20 in blocking buffer) was added to each well and incubated with shaking for 1 hour at room temperature. After rinsing three times with wash buffer, 150 μL of read buffer T with surfactant (MSD) were added to each empty well, and the plate was imaged on a SI 6000 imager (MSD) according to manufacturers' instructions provided for 96- or 384-well plates.
row,SMILES,IC50 [µM]
1,"Cc1cn2nc(-c3cc(F)c4cc(C5CCCN(CCO)CC5)nnc4c3)cc(C)c2n1 (stereo not shown) [Compound 190, 2-{4-[7-(2,8-dimethylimidazo[1,2-b]pyridazin-6-yl)-5-fluorocinnolin-3-yl]azepan-1-yl}ethan-1-ol]",≤ 0.1
2,"CCN1CCC(c2cc3c(F)cc(-c4cc(OC)c5nn(C)cc5n4)cc3nn2)CC1 [Compound 173, 3-(1-ethylpiperidin-4-yl)-5-fluoro-7-(7-methoxy-2-methyl-2H-pyrazolo[4,3-b]pyridin-5-yl)cinnoline]",≤ 0.1
3,"Cc1cn2nc(-c3cc(F)c4cc(C5CC6CC[C@@H](C5)N6)nnc4c3)cc(C)c2n1 (stereo partly drawn) [Compound 169, 3-[(1R,3r,5S)-8-azabicyclo[3.2.1]octan-3-yl]-7-(2,8-dimethylimidazo[1,2-b]pyridazin-6-yl)-5-fluorocinnoline]",≤ 0.1
4,"COc1cc(-c2cc(F)c3nc(C4CCNCC4)ccc3c2)cc2cn(C)nc12 [Compound 49, 8-fluoro-6-(7-methoxy-2-methyl-2H-indazol-5-yl)-2-(piperidin-4-yl)quinoline]",≤ 0.1
5,"CC[C@H]1CC(c2cc3c(F)cc(-c4cc(C)c5nc(C)cn5n4)cc3nn2)C[C@H](CC)N1C (stereo partly drawn) [Compound 131, 3-[(2S,6S)-2,6-diethyl-1-methylpiperidin-4-yl]-7-(2,8-dimethylimidazo[1,2-b]pyridazin-6-yl)-5-fluorocinnoline]",≤ 0.1
6,"CN(c1ccc2cc(-c3ccc4nn(C)cc4c3)ccc2n1)C1CC(C)(C)NC(C)(C)C1 [Compound 12, N-methyl-6-(2-methyl-2H-indazol-5-yl)-N-(2,2,6,6-tetramethylpiperidin-4-yl)quinolin-2-amine]",0.5 to 1
7,"Cc1cc(-c2ccc3nc(N(C)C4CC(C)(C)NC(C)(C)C4)ccc3c2)cc2cn(C)nc12 [Compound 11, 6-(2,7-dimethyl-2H-indazol-5-yl)-N-methyl-N-(2,2,6,6-tetramethylpiperidin-4-yl)quinolin-2-amine]",1 to 3
8,"Cc1cn2nc(-c3cc(F)c4cc(C5CCN(CC(F)F)CC5)nnc4c3)cc(C)c2n1 [Compound 98, 3-[1-(2,2-difluoroethyl)piperidin-4-yl]-7-(2,8-dimethylimidazo[1,2-b]pyridazin-6-yl)-5-fluorocinnoline]",0.1 to 0.5
9,"Cc1cn2cc(-c3cc4c(F)cc(C5=CCNCC5)cc4nn3)cc(C)c2n1 [Compound 156, 3-(2,8-dimethylimidazo[1,2-a]pyridin-6-yl)-5-fluoro-7-(1,2,3,6-tetrahydropyridin-4-yl)cinnoline]",≤ 0.1
10,"CCN1CCC(c2ccc3cc(-c4ccc5nn(C)cc5c4)ccc3n2)CC1 [Compound 9, 2-(1-ethylpiperidin-4-yl)-6-(2-methyl-2H-indazol-5-yl)quinoline]",1 to 3
11,"CCN1CC=C(c2cc(F)c3nc(-c4cc(F)c5nn(C)cc5c4)ccc3c2)CC1 [Compound 184, 6-(1-ethyl-1,2,3,6-tetrahydropyridin-4-yl)-8-fluoro-2-(7-fluoro-2-methyl-2H-indazol-5-yl)quinoline]",≤ 0.1
12,"Cc1cn2cc(-c3nnc4cc(C5CCNCC5)ccc4n3)cc2c(C)n1 [Compound 28, 3-(1,3-dimethylpyrrolo[1,2-a]pyrazin-7-yl)-7-(piperidin-4-yl)-1,2,4-benzotriazine]",1 to 3
13,"Cn1cc2cc(-c3ccc4nc(C5CCNCC5)cnc4c3)cc(C(F)(F)F)c2n1 [Compound 24, 6-[2-methyl-7-(trifluoromethyl)-2H-indazol-5-yl]-2-(piperidin-4-yl)quinoxaline]",0.1 to 0.5
14,"CCN1CCC(c2cc3c(F)cc(-c4cc(C)c5nc(C)cn5n4)cc3nn2)CC1 [Compound 76, 7-(2,8-dimethylimidazo[1,2-b]pyridazin-6-yl)-3-(1-ethylpiperidin-4-yl)-5-fluorocinnoline]",≤ 0.1
15,"Cc1cc(-c2cc(F)c3nc(C4CCNCC4)nnc3c2)cc2cn(C)nc12 [Compound 33, 7-(2,7-dimethyl-2H-indazol-5-yl)-5-fluoro-3-(piperidin-4-yl)-1,2,4-benzotriazine]",≤ 0.1
16,"COc1cc(-c2cc(F)c3cc(C4CCNCC4)nnc3c2)nc2cn(C)nc12 [Compound 163, 5-fluoro-7-(7-methoxy-2-methyl-2H-pyrazolo[4,3-b]pyridin-5-yl)-3-(piperidin-4-yl)cinnoline]",≤ 0.1
17,"Cc1cc2cc(-c3cc(F)c4nc(C5CCNCC5)nnc4c3)cc(C)n2n1 [Compound 65, 7-(2,7-dimethylpyrazolo[1,5-a]pyridin-5-yl)-5-fluoro-3-(piperidin-4-yl)-1,2,4-benzotriazine]",0.1 to 0.5

row,SMILES,IC50 [µM]
1,"Cc1cc2sc(-c3cc(F)c4cc(C5CCNCC5)nnc4c3)nc2c(C)n1 [Compound 149, 7-(4,6-dimethyl[1,3]thiazolo[4,5-c]pyridin-2-yl)-5-fluoro-3-(piperidin-4-yl)cinnoline]",≤ 0.1
2,"Cn1cc2cc(-c3cc(F)c4cc(C5CCNCC5)nnc4c3)cc(C#N)c2n1 [Compound 104, 5-[5-fluoro-3-(piperidin-4-yl)cinnolin-7-yl]-2-methyl-2H-indazole-7-carbonitrile]",≤ 0.1
3,"Cc1cc(-c2nnc3cc(C4CCNCC4)ccc3n2)cc2cn(C)nc12 [Compound 17, 3-(2,7-dimethyl-2H-indazol-5-yl)-7-(piperidin-4-yl)-1,2,4-benzotriazine]",≤ 0.1
4,"CCN1CCC(c2cc3c(F)cc(-c4ccc5nc(C)cn5n4)cc3nn2)CC1 [Compound 100, 3-(1-ethylpiperidin-4-yl)-5-fluoro-7-(2-methylimidazo[1,2-b]pyridazin-6-yl)cinnoline]",≤ 0.1
5,"Cc1cn2nc(-c3cc(F)c4cc(N5CC6(CCCNC6)C5)nnc4c3)cc(C)c2n1 [Compound 218, 3-(2,6-diazaspiro[3.5]nonan-2-yl)-7-(2,8-dimethylimidazo[1,2-b]pyridazin-6-yl)-5-fluorocinnoline]",≤ 0.1
6,"Cc1cn2nc(-c3cc(F)c4nc(C5CCN(C)CC5)nnc4c3)cc(C)c2n1 [Compound 69, 7-(2,8-dimethylimidazo[1,2-b]pyridazin-6-yl)-5-fluoro-3-(1-methylpiperidin-4-yl)-1,2,4-benzotriazine]",≤ 0.1
7,"Cn1cc2cc(-c3ccc4cc(C5=CCNCC5)cc(F)c4n3)cc(F)c2n1 [Compound 166, 8-fluoro-2-(7-fluoro-2-methyl-2H-indazol-5-yl)-6-(1,2,3,6-tetrahydropyridin-4-yl)quinoline]",≤ 0.1
8,"Cc1cn2nc(-c3cc(F)c4cc(N5CC6CC5CN6C)nnc4c3)cc(C)c2n1 (stereo not shown) [Compound 209, 7-(2,8-dimethylimidazo[1,2-b]pyridazin-6-yl)-5-fluoro-3-(5-methyl-2,5-diazabicyclo[2.2.1]heptan-2-yl)cinnoline]",0.1 to 0.5
9,"Cc1cn2nc(-c3cc(F)c4cc(C5CCNCC5)nnc4c3)cc(OCCN(C)C)c2n1 [Compound 138, 2-({6-[5-fluoro-3-(piperidin-4-yl)cinnolin-7-yl]-2-methylimidazo[1,2-b]pyridazin-8-yl}oxy)-N,N-dimethylethan-1-amine]",0.1 to 0.5
10,"Cc1cn2nc(-c3cc(F)c4cc(C5CCN(CCF)CC5)nnc4c3)cc(C)c2n1 [Compound 83, 7-(2,8-dimethylimidazo[1,2-b]pyridazin-6-yl)-5-fluoro-3-[1-(2-fluoroethyl)piperidin-4-yl]cinnoline]",≤ 0.1
11,"CCN1CCC(c2cc3c(F)cc(-c4cc(C)c5nn(C)cc5n4)cc3nn2)CC1 [Compound 164, 7-(2,7-dimethyl-2H-pyrazolo[4,3-b]pyridin-5-yl)-3-(1-ethylpiperidin-4-yl)-5-fluorocinnoline]",≤ 0.1
12,"CCc1cc(-c2cc(F)c3cc(C4CCN(CCO)CC4)nnc3c2)nn2cc(C)nc12 [Compound 123, 2-{4-[7-(8-ethyl-2-methylimidazo[1,2-b]pyridazin-6-yl)-5-fluorocinnolin-3-yl]piperidin-1-yl}ethan-1-ol]",≤ 0.1
13,"Cn1cc2cc(-c3cc4ccc(C5=CCNCC5)cc4nn3)ccc2n1 [Compound 4, 3-(2-methyl-2H-indazol-5-yl)-7-(1,2,3,6-tetrahydropyridin-4-yl)cinnoline]",0.5 to 1
14,"Cc1cn2nc(-c3cc(F)c4cc(C5CCNCC5)nnc4c3)cc(CCO)c2n1 [Compound 207, 2-{6-[5-fluoro-3-(piperidin-4-yl)cinnolin-7-yl]-2-methylimidazo[1,2-b]pyridazin-8-yl}ethan-1-ol]",≤ 0.1
15,"Cn1cc2cc(-c3ccc4cc(N5CCNCC5)ccc4n3)ccc2n1 [Compound 7, 2-(2-methyl-2H-indazol-5-yl)-6-(piperazin-1-yl)quinoline]",1 to 3
16,"Cc1cn2cc(-c3cc(F)c4nc(C5CCNCC5)nnc4c3)cc(F)c2n1 [Compound 58, 5-fluoro-7-(8-fluoro-2-methylimidazo[1,2-a]pyridin-6-yl)-3-(piperidin-4-yl)-1,2,4-benzotriazine]",≤ 0.1
17,"COc1cc(-c2cc(F)c3cc(C4CCNCC4)nnc3c2)nn2cc(C)nc12 [Compound 106, 5-fluoro-7-(8-methoxy-2-methylimidazo[1,2-b]pyridazin-6-yl)-3-(piperidin-4-yl)cinnoline]",≤ 0.1
